Measured values from PMC9413440, “An Iterative Approach Guides Discovery of the FabI Inhibitor Fabimycin, a Late-Stage Antibiotic Candidate with In Vivo Efficacy against Drug-Resistant Gram-Negative Infections” (ACS Central Science, 2022).
Converted amounts (≈) assume the structure as drawn. Like-named read-outs stand apart in the source and are kept apart here.

What was measured:
[1] = tested on: K. pneumoniae clinical isolates (n=100); assay: MIC50/MIC90, clinical isolate panel; assay type: cell-based; settings: Klebsiella pneumoniae; K. pneumoniae (n=100) clinical isolates
Description: Figure 4 Antimicrobial activity of fabimycin against clinical isolates. (A) The susceptibility of clinical isolates (Gram-negative species and S. aureus) to fabimycin, Debio-1452-NH3, and Debio-1452. MICs performed in biological triplicate. (B) Further exploration of the breadth of fabimycin’s antibacterial activity against diverse clinical isolate panels of K. pneumoniae and A. baumannii, as compared to levofloxacin. MICs performed in biological duplicate.
(§1) II. Materials and Methods for Biological Experiments
(§2) S. aureus ATCC 29213 and E. coli MG1655 were obtained from the American Type Culture Collection (ATCC). E. coli BW25113 and E. coli JW5503 were obtained from the Keio Collection. AR-bank strains were obtained from the Centers for Disease Control and Prevention and FDA Antibiotic Resistance Isolate Bank.
(§3) Antimicrobial susceptibility tests
(§4) Susceptibility testing was performed in biological triplicate, unless noted otherwise, using the micro-dilution broth method as outlined by the Clinical and Laboratory Standards Institute. Bacteria were cultured with cation-adjusted Mueller Hinton broth (Sigma Aldrich, catalogue number: 90922). […]
Error bars represent the standard error of the mean of three biological replicates. All compounds evaluated in biological assays were ≥95% pure.

A. baumannii FabI = A. baumannii FabI (Acinetobacter baumannii, UniProt D0CAD5); assay: Differential scanning fluorimetry; assay type: binding; settings: relative to the holoenzyme
Sequence of A. baumannii FabI (D0CAD5 entry or part of it): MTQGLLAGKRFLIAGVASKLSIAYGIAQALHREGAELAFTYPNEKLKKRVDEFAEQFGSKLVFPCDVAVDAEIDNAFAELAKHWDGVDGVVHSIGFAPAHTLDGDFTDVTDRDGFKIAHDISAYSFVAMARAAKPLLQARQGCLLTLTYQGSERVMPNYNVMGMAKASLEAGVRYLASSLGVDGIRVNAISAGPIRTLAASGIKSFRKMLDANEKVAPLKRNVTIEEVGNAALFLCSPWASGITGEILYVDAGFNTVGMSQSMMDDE
Method: supplemented with 100 µg/mL ampicillin at 37°C until OD600 reached 0.6-0.7. The cells were induced with 1mM IPTG and incubated for 20 hours at 18°C and spun down at 8000 rpm for 15 minutes. Cell pellet was resuspended in the lysis buffer (50 mM Tris-HCl pH 8.0, 500 mM Na Cl, 20 mM imidazole, 10% glycerol, 0.5 mM TCEP, protease inhibitor and Lysonase) and passed through microfluidizer followed by centrifugation and filtration to remove cell debris. The clarified lysate was supplemented with 20 mM imidazole and passed over a HisTrap column (Cytiva) pre-equilibrated with the wash buffer (50 mM Tris-HCl pH 8.0, 500 mM NaCl, 20 mM imidazole, 10% glycerol, 0.5 mM TCEP). The column was washed with the wash buffer and eluted over a 20-500 mM imidazole gradient. […]
Recombinant E. coli and A. baummani FabI enzymes were used in a continuous NADH absorbance assay (20 µL in 384w format). […] After shaking for 5 seconds the reaction was monitored at NADH absorbance (340nm, 25°C) using a Molecular Devices SpectraMax M5 microplate reader. The linear portion of the progress curve was fit using plate-reader software. Percentage activity was calculated relative to DMSO only and no-substrate controls in each plate and the data were fit to Morrison’s quadratic using Graphpad Prism 9.3 to obtain apparent inhibition constant (Ki app) values. […]

[2] = tested on: Vancomycin-resistant Enterococcus (VRE); assay: MIC, vancomycin-resistant Enterococcus strains; assay type: cell-based
Method: as §1, §2, §3, §4
NH3: m/z 391.2 → 171.0. Fabimycin: m/z 405.3 → 145.3. Power analysis was not used to determine the number of replicates. Error bars represent the standard error of the mean of three biological replicates. All compounds evaluated in biological assays were ≥95% pure.

| Structure (SMILES) | MIC50 [1] [µg/mL] | MIC90 [1] [µg/mL] | ΔTm (A. baumannii FabI) [°C] | MIC ([2]; ATCC 1593 / VRE) [µg/mL] | MIC ([2]; ATCC 1768 / VRE) [µg/mL] | MIC ([2]; ATCC 2059 / VRE, VRE ATCC 2059, read-out: MIC) [µg/mL] | MIC ([2]; ATCC 2431 / VRE) [µg/mL] | MIC ([2]; ATCC 2574 / VRE) [µg/mL] | MIC ([2]; ATCC 3053 / VRE, VRE ATCC 3053, read-out: MIC) [µg/mL] | MIC ([2]; ATCC 3183 / VRE, VRE ATCC 3183, read-out: MIC) [µg/mL] | MIC ([2]; ATCC 3190 / VRE) [µg/mL] | MIC ([2]; ATCC 3191 / VRE) [µg/mL] | MIC ([2]; ATCC 29212 / VRE) [µg/mL] |
| --- | --- | --- | --- | --- | --- | --- | --- | --- | --- | --- | --- | --- | --- |
| Cc1c(CN(C)C(=O)/C=C/c2cnc3c(c2)CC[C@H](N)C(=O)N3)oc2ccccc12 [fabimycin] | 1 (≈ 2.47 µM) | 4 (≈ 9.89 µM) | 24 ± 0.5 | 128 (≈ 316 µM) | > 128 | 64 (≈ 158 µM) | > 128 | > 128 | 64 (≈ 158 µM) | 64 (≈ 158 µM) | > 128 | 128 (≈ 316 µM) | 128 (≈ 316 µM) |
| Cc1c(CN(C)C(=O)/C=C/c2cnc3c(c2)CC[C@@H](N)C(=O)N3)oc2ccccc12 [(R)-7] | – | – | 18 ± 0.5 | – | – | – | – | – | – | – | – | – | – |
